The test system of the experiment is behaviors of compound-treated mice. Kind of experiment: Neuropharmacological Assay (SmartCube). The following applies: for minimal effective dose: Mus musculus, ip, 0.25 h, dose having 50% or more total activity in SmartCube, read-out: MED (minimal effective dose). Format: in vivo. Summed up: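 Behavioral signatures were captured automatically by video, and each drug class received a probability for the best of three i.p. doses given 15 min pre-test (vehicle: Pharmasolve/PEG/propylene glycol). Potency is given as MED, the lowest mpk dose (typically 0.3–30) reaching 50% or more total activity.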

Where [1] appears, read: i.p. 15 min before behavioral test, most efficacious dose(s) of 3 doses.
The mark [2] stands for this setting: SmartCube, i.p. 15 min before test, most efficacious dose(s).

Where a name gives a salt, the structure may show the parent alone. Read-outs that look alike come from different tables or passages of the source.

In general, minimal effective dose refers to the lowest level tested that produced the effect sought. For `CNC[C@H]1OCCc2c(-c3cn[nH]c3)cccc21` [Compound 119, (S)-1-(5-(1H-pyrazol-4-yl)isochroman-1-yl)-N-methylmethanamine hydrochloride salt], under “i.p.”, the minimal effective dose is at most 3 mg/kg. Further, under setting [1], the “AD: ADHD (probability that activity matches class)” value (shortened to “AD: ADHD”) was “++ (5% ≤ ++ <25%)”, the “AG: analgesic (probability that activity matches class)” value (shortened to “AG: analgesic”) was “+ (LOQ ≤ + <5%)”, the “AX: anxiolytic (probability that activity matches class)” value (“AX: anxiolytic” below) is listed as “++ (5% ≤ ++ <25%)” and the “CE: cognitive enhancer (probability that activity matches class)” value (shortened to “CE: cognitive enhancer”) was “+ (LOQ ≤ + <5%)”. For the same compound, under setting [1], the “DP: anti-depressant (probability that activity matches class)” value (“DP: anti-depressant” for short) is “++++ (50% ≤ ++++)”, the “MS: mood stabilizer (probability that activity matches class)” value (“MS: mood stabilizer” for short) is recorded as “+ (LOQ ≤ + <5%)”, the “PS: anti-psychotic (probability that activity matches class)” value (“PS: anti-psychotic” for short) was “+ (LOQ ≤ + <5%)” and the “SD: sedative hypnotic (probability that activity matches class)” value (“SD: sedative hypnotic” below) is listed as “++ (5% ≤ ++ <25%)”. Further, under setting [1], the “UN: uncharacterized CNS activity (probability that activity matches class)” value (from here on “UN: uncharacterized CNS activity”) is given as “+ (LOQ ≤ + <5%)”.
Turning to `CNC[C@@H]1OCCc2c(-c3cc(C)nc(C)c3)cccc21` [Compound 124, (R)-1-(5-(2,6-dimethylpyridin-4-yl)isochroman-1-yl)-N-methylmethanamine dihydrochloride], the minimal effective dose (i.p.) was in the range of 10 to 30 mg/kg. For the same compound, under setting [1], the “AD: ADHD” value is “+ (LOQ ≤ + <5%)”, the “AG: analgesic” value is listed as “+ (LOQ ≤ + <5%)”, the “AX: anxiolytic” value was “+ (LOQ ≤ + <5%)” and the “CE: cognitive enhancer” value is recorded as “+ (LOQ ≤ + <5%)”. Further, under setting [1], the “DP: anti-depressant” value was “+ (LOQ ≤ + <5%)”, the “MS: mood stabilizer” value is recorded as “+ (LOQ ≤ + <5%)”, the “PS: anti-psychotic” value is recorded as “+ (LOQ ≤ + <5%)” and the “SD: sedative hypnotic” value is given as “+ (LOQ ≤ + <5%)”. The “UN: uncharacterized CNS activity” value under setting [1] is given as “+ (LOQ ≤ + <5%)”.
As for `CNC[C@H]1OCCc2c(-c3cc(C)nc(C)c3)cccc21` [Compound 125, (S)-1-(5-(2,6-dimethylpyridin-4-yl)isochroman-1-yl)-N-methylmethanamine dihydrochloride], the minimal effective dose (i.p.) is at most 3 mg/kg. Further, under setting [1], the “AD: ADHD” value is “+ (LOQ ≤ + <5%)”, the “AG: analgesic” value is on record as “+ (LOQ ≤ + <5%)”, the “AX: anxiolytic” value is reported as “+ (LOQ ≤ + <5%)” and the “CE: cognitive enhancer” value is recorded as “+ (LOQ ≤ + <5%)”. Also, under setting [1], the “DP: anti-depressant” value is “++++ (50% ≤ ++++)”, the “MS: mood stabilizer” value is given as “+ (LOQ ≤ + <5%)”, the “PS: anti-psychotic” value is listed as “+ (LOQ ≤ + <5%)” and the “SD: sedative hypnotic” value was “+ (LOQ ≤ + <5%)”. For the same compound, the “UN: uncharacterized CNS activity” value under setting [1] is on record as “++++ (50% ≤ ++++)”.
`Cc1cc(-c2cccc3c2CCO[C@H]3CN)cc(C)n1` [Compound 126, dihydrochloride]: the minimal effective dose (i.p.) was 10 to 30 mg/kg. Besides, under setting [1], the “AD: ADHD” value was “+ (LOQ ≤ + <5%)”, the “AG: analgesic” value is “+ (LOQ ≤ + <5%)”, the “AX: anxiolytic” value is reported as “+ (LOQ ≤ + <5%)” and the “CE: cognitive enhancer” value is reported as “+ (LOQ ≤ + <5%)”. Under setting [1], the “DP: anti-depressant” value is reported as “+ (LOQ ≤ + <5%)”, the “MS: mood stabilizer” value is “+ (LOQ ≤ + <5%)”, the “PS: anti-psychotic” value is recorded as “+ (LOQ ≤ + <5%)” and the “SD: sedative hypnotic” value was “+ (LOQ ≤ + <5%)”. Moreover, the “UN: uncharacterized CNS activity” value under setting [1] is recorded as “+ (LOQ ≤ + <5%)”.
As for `Cc1cc(-c2cccc3c2CCO[C@@H]3CN)cc(C)n1` [Compound 127, dihydrochloride], the minimal effective dose (i.p.) was in the range of 10 to 30 mg/kg. Further, under setting [1], the “AD: ADHD” value is “+ (LOQ ≤ + <5%)”, the “AG: analgesic” value is listed as “+ (LOQ ≤ + <5%)”, the “AX: anxiolytic” value is “+ (LOQ ≤ + <5%)” and the “CE: cognitive enhancer” value is on record as “+ (LOQ ≤ + <5%)”. Under setting [1], the “DP: anti-depressant” value is “++ (5% ≤ ++ <25%)”, the “MS: mood stabilizer” value is “+ (LOQ ≤ + <5%)”, the “PS: anti-psychotic” value is “+ (LOQ ≤ + <5%)” and the “SD: sedative hypnotic” value is on record as “+ (LOQ ≤ + <5%)”. The “UN: uncharacterized CNS activity” value under setting [1] is listed as “+ (LOQ ≤ + <5%)”.
With `NC[C@@H]1OCCCc2c(-c3ccccn3)cccc21` [Compound 158, (R)-(6-(pyridin-2-yl)-1,3,4,5-tetrahydrobenzo[c]oxepin-1-yl)methanamine hydrochloride salt], the minimal effective dose (i.p.) lay within 10 to 30 mg/kg. Moreover, under setting [1], the “AD: ADHD” value is “+ (LOQ ≤ + <5%)”, the “AG: analgesic” value is recorded as “+ (LOQ ≤ + <5%)”, the “AX: anxiolytic” value was “++ (5% ≤ ++ <25%)” and the “CE: cognitive enhancer” value is reported as “+ (LOQ ≤ + <5%)”. Also, under setting [1], the “DP: anti-depressant” value is given as “+ (LOQ ≤ + <5%)”, the “MS: mood stabilizer” value is recorded as “+ (LOQ ≤ + <5%)”, the “PS: anti-psychotic” value was “+ (LOQ ≤ + <5%)” and the “SD: sedative hypnotic” value is reported as “+ (LOQ ≤ + <5%)”. The “UN: uncharacterized CNS activity” value under setting [1] is reported as “+ (LOQ ≤ + <5%)”.
Turning to `NC[C@H]1OCCCc2c(-c3ccccn3)cccc21` [Compound 159, (S)-(6-(pyridin-2-yl)-1,3,4,5-tetrahydrobenzo[c]oxepin-1-yl)methanamine hydrochloride salt], the minimal effective dose (i.p.) fell in the range of 10 to 30 mg/kg. For the same compound, under setting [1], the “AD: ADHD” value is reported as “+ (LOQ ≤ + <5%)”, the “AG: analgesic” value is on record as “+ (LOQ ≤ + <5%)”, the “AX: anxiolytic” value is “+ (LOQ ≤ + <5%)” and the “CE: cognitive enhancer” value is “+ (LOQ ≤ + <5%)”. For the same compound, under setting [1], the “DP: anti-depressant” value is “+ (LOQ ≤ + <5%)”, the “MS: mood stabilizer” value is “+ (LOQ ≤ + <5%)”, the “PS: anti-psychotic” value was “+ (LOQ ≤ + <5%)” and the “SD: sedative hypnotic” value is given as “+ (LOQ ≤ + <5%)”. The “UN: uncharacterized CNS activity” value under setting [1] is reported as “+ (LOQ ≤ + <5%)”.
In the case of `CNC[C@H]1OCCc2c1cccc2-n1ccnc1` [Compound 183, (S)-1-(5-(1H-Imidazol-1-yl)isochroman-1-yl)-N-methylmethanamine hydrochloride salt], the minimal effective dose lay in the range of 3 to 10 mg/kg. Under setting [2], the “AD: ADHD” value is “+ (LOQ ≤ + <5%)”, the “AG: analgesic” value is “+ (LOQ ≤ + <5%)”, the “AX: anxiolytic” value is given as “+ (LOQ ≤ + <5%)” and the “CE: cognitive enhancer” value is given as “+ (LOQ ≤ + <5%)”. Besides, under setting [2], the “DP: anti-depressant” value is “++++ (50% ≤ ++++)”, the “MS: mood stabilizer” value is recorded as “+ (LOQ ≤ + <5%)”, the “PS: anti-psychotic” value is on record as “+ (LOQ ≤ + <5%)” and the “SD: sedative hypnotic” value is on record as “+ (LOQ ≤ + <5%)”. Under setting [2], the “UN: uncharacterized CNS activity” value is “++ (5% ≤ ++ <25%)”.

Source of the values: patent publication US10780074B2, “Compounds and uses thereof” (Sunovion Pharmaceuticals Inc., priority 2017, dated 2020).
